Experiments:
Assay in all cases: Kinase panel study
Format in all cases: biochemical
Settings in all cases: read-out: Percentage of inhibition; for inhibition at 1 µM: 1000nM; for inhibition at 10 µM: 10000nM
AMPK (A1/B2/G2) = target: T1, AMPK (A1/B2/G2) (Homo sapiens, UniProt Q13131)
T1 construct: purchased Thermo Fisher Scientific
Summary of the method: (§1)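 In vitro, kinase panel; ZLyte or Adapta SOP; single-concentration testing (1 or 10 µM); output = % inhibition, plus IC50 in panel.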

AXL = target: T2, AXL (Homo sapiens, UniProt P30530)
T2 construct: purchased Thermo Fisher Scientific
T2 sequence (P30530 26-894): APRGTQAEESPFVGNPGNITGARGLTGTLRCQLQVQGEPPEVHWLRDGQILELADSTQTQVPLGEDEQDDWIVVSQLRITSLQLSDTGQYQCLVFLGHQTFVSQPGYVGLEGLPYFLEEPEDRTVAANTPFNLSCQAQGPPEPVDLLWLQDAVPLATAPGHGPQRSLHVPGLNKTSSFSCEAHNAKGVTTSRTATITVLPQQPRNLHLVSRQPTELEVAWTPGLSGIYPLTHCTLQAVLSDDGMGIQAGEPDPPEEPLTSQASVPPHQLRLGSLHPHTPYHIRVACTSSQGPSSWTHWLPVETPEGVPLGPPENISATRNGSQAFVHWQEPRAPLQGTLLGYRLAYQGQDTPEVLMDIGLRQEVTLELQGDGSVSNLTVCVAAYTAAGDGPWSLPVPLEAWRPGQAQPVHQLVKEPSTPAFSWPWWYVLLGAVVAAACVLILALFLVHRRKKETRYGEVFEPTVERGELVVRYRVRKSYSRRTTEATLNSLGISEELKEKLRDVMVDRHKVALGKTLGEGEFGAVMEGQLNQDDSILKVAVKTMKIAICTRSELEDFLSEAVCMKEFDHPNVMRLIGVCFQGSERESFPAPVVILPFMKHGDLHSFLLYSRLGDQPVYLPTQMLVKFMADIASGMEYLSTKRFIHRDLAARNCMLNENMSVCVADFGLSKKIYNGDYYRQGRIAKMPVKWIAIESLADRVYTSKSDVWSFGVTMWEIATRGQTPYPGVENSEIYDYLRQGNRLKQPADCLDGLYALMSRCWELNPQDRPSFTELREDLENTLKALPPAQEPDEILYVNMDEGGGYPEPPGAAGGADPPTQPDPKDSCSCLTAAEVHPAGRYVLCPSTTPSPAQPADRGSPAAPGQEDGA
Summary of the method: as §1

GRK6 = target: T3, GRK6 (Homo sapiens, UniProt P43250)
T3 construct: purchased Thermo Fisher Scientific
Summary of the method: as §1

HIPK2 = target: T4, HIPK2 (Homo sapiens, UniProt Q9H2X6)
T4 construct: purchased Thermo Fisher Scientific
Summary of the method: as §1

NEK2 = target: T5, NEK2 (Homo sapiens, UniProt P51955)
T5 construct: purchased Thermo Fisher Scientific
T5 sequence (P51955 1-445): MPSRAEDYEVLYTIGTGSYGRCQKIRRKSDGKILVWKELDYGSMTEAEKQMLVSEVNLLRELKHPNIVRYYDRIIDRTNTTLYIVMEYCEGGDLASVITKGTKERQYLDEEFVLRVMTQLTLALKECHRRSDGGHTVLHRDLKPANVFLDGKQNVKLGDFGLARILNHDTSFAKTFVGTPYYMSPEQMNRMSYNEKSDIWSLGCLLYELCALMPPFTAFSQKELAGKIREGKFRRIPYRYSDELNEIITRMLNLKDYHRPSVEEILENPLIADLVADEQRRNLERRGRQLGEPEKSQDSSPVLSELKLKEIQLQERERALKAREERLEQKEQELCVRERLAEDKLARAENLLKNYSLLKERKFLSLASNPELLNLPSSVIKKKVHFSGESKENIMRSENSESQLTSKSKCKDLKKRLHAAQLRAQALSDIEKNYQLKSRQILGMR
Summary of the method: as §1

RET S891A = target: T6, RET S891A (Homo sapiens, UniProt P07949, S891A)
T6 construct: purchased Thermo Fisher Scientific
Summary of the method: as §1

SBK1 = target: T7, SBK1 (Homo sapiens, UniProt Q52WX2)
T7 construct: purchased Thermo Fisher Scientific
Summary of the method: as §1

T6 sequence (P07949 29-1114 S891A): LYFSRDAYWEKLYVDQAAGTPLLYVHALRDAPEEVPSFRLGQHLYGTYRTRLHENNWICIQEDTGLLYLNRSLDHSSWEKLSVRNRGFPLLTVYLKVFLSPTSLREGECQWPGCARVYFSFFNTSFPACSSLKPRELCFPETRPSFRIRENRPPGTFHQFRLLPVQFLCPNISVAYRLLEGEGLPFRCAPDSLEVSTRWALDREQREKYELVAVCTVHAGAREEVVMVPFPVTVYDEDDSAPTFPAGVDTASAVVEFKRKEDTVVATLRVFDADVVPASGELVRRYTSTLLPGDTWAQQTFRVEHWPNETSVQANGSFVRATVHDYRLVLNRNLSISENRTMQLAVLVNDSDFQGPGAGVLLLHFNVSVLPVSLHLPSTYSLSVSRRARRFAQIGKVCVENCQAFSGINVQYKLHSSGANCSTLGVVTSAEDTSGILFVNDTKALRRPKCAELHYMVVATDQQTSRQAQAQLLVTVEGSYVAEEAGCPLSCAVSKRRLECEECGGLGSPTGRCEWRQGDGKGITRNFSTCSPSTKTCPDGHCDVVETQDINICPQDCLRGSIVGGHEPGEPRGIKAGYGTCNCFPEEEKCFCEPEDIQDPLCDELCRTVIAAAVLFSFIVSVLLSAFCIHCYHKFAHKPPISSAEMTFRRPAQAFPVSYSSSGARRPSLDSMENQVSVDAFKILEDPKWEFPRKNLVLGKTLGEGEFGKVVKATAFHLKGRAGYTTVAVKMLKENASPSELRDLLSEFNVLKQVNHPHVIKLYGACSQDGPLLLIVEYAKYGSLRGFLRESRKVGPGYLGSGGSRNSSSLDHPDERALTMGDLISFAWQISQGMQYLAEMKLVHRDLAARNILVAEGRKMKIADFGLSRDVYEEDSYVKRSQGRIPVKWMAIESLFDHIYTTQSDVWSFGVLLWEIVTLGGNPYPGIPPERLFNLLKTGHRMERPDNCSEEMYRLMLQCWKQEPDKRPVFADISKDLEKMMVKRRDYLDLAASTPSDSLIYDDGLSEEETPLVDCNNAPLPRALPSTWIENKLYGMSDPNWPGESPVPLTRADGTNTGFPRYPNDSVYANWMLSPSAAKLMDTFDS
T4 sequence (Q9H2X6 whole entry): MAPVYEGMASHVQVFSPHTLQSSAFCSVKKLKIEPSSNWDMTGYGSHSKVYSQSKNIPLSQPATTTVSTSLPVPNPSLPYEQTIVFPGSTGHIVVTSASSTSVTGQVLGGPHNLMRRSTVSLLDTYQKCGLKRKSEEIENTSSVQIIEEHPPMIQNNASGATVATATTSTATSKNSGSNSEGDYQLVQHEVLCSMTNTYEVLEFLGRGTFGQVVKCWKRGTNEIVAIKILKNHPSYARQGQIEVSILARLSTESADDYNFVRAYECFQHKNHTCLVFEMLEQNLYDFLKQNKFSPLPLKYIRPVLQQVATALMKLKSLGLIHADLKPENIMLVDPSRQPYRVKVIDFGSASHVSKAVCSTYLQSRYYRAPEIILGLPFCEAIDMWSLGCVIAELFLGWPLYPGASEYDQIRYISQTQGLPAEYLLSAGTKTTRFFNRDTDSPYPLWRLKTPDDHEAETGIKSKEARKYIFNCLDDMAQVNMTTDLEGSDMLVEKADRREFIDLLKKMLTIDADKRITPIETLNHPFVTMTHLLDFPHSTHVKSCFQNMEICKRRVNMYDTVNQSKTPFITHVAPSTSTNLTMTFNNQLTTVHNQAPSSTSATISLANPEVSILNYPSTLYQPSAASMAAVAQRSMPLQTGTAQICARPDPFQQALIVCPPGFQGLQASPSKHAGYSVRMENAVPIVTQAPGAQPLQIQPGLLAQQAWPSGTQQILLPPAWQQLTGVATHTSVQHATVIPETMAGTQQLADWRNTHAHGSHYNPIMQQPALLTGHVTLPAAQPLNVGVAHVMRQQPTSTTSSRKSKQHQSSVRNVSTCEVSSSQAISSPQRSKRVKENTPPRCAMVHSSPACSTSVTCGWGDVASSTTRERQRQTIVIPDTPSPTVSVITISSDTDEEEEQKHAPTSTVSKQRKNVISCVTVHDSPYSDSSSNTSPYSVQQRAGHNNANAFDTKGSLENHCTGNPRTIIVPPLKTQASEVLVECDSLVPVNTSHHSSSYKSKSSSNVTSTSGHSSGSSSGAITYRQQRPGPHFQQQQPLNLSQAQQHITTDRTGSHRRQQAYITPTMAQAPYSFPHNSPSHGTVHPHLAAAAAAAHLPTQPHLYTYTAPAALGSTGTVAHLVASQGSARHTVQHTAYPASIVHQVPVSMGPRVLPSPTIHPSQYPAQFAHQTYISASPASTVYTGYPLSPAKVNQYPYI
T7 sequence (Q52WX2 whole entry): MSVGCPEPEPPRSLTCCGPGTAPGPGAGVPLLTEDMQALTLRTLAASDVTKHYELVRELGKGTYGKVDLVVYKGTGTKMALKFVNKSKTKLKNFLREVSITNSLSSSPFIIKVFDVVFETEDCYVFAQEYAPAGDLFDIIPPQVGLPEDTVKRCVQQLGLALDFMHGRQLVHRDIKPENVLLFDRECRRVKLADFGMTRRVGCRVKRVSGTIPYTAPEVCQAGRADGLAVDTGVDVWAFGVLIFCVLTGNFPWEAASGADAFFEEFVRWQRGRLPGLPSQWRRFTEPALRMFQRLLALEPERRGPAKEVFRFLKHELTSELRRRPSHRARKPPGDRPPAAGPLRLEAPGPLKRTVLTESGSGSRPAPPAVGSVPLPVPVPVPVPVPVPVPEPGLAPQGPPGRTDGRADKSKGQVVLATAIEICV
T1 sequence (Q13131 whole entry): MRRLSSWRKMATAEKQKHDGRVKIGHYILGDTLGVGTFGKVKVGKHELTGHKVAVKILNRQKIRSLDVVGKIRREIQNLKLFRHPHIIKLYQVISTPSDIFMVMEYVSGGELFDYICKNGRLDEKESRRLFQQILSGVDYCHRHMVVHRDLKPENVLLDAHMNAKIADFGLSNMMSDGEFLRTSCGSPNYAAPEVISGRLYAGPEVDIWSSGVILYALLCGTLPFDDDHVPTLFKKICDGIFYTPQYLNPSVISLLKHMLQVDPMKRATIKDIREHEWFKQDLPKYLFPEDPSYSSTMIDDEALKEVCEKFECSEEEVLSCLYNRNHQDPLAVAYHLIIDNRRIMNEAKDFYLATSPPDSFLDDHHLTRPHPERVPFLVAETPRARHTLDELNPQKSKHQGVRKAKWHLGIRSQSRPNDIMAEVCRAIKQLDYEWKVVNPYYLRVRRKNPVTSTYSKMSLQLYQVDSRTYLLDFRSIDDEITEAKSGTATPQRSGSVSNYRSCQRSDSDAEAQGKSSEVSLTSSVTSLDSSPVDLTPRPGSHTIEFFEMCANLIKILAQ
T1 sequence (O43741 whole entry partner): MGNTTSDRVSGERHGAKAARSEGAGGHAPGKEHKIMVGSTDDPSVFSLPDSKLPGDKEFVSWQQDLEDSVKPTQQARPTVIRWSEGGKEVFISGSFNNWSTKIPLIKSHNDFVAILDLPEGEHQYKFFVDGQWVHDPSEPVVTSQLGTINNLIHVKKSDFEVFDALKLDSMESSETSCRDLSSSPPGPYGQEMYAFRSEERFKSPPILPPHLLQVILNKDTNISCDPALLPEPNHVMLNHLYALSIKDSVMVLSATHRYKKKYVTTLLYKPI
T1 sequence (Q9UGJ0 whole entry partner): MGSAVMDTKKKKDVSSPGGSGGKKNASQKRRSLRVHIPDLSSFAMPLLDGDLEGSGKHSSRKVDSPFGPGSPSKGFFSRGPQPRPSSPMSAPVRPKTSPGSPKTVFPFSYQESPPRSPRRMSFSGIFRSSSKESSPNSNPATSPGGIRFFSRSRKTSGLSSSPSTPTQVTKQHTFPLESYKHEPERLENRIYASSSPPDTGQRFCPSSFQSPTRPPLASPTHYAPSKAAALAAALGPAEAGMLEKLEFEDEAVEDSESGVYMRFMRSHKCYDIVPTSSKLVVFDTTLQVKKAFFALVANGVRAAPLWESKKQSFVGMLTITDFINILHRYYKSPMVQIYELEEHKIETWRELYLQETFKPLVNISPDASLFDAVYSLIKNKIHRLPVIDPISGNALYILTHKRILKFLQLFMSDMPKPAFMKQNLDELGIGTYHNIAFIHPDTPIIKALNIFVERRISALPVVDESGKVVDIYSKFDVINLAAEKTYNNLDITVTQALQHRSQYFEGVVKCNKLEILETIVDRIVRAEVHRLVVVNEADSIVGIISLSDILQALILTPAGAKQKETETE
T3 sequence (P43250 whole entry): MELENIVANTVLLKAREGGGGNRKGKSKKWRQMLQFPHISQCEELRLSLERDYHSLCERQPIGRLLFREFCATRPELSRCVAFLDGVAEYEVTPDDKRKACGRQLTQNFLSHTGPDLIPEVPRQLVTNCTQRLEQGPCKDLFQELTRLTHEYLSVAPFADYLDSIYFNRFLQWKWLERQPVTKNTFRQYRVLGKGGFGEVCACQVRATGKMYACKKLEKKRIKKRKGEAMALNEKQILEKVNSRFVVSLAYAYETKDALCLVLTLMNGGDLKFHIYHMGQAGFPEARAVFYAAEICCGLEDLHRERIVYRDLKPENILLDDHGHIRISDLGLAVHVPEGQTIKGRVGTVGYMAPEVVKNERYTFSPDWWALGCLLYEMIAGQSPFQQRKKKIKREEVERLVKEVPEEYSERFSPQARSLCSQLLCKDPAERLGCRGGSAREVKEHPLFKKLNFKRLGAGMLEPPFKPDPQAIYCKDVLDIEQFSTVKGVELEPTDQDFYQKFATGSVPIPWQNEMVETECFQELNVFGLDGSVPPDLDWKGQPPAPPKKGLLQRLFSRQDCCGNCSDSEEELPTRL

SMILES	inhibition at 1 µM (AMPK (A1/B2/G2))	inhibition at 10 µM (AMPK (A1/B2/G2))	inhibition at 1 µM (AXL)	inhibition at 10 µM (AXL)	inhibition at 1 µM (GRK6)	inhibition at 10 µM (GRK6)	inhibition at 1 µM (HIPK2)	inhibition at 10 µM (HIPK2)	inhibition at 1 µM (NEK2)	inhibition at 10 µM (NEK2)	inhibition at 1 µM (RET S891A)	inhibition at 10 µM (RET S891A)	inhibition at 1 µM (SBK1)	inhibition at 10 µM (SBK1)
COc1ccc2c(c1OC)c(=O)n1c3ccc(O)cc3c3ccnc2c31 [MW01, 5-Hydroxy-10,11-dimethoxy-9H-benzo[c]indolo[3,2,1-ij][1,5]naphthyridin-9-one]	-6%	5%	51%	80%	0%	5%	48%	74%	-4%	0%	-3%	30%	3%	3%
COc1ccc2cc3c(N)nn(C(=O)c4cccc(N(C)C)c4)c3nc2c1 [MW05, (3-Amino-7-methoxypyrazolo[3,4-b]quinolin-1-yl)-[3-(dimethylamino)phenyl]methanone]	-10%	4%	4%	-8%	6%	3%	4%	13%	-3%	1%	-15%	-18%	-7%	-26%

Source: patent EP4467141A1, “PYRAZOLO-QUINOLINES AS SELECTIVE INHIBITORS OF GENOTOXIC STRESS-INDUCED IKK/NF- KB PATHWAYS FOR CANCER THERAPY” (Max-Delbrück-Centrum für Molekulare Medizin in der …, priority 2023, dated 2024)
